Data taken from patent US20240156717A1, “COMPOSITION FOR ENHANCING SKIN WHITENING EFFECT ACCORDING TO AUTOPHAGY ACTIVITY WITH NYPA FRUTICANS EXTRACT AS AN ACTIVE INGREDIENT” (KYUNGPOOK NATIONAL UNIVERSITY INDUSTRY - ACADEMIC …, priority 2022, published 2024).

How the values were obtained:
Type in all cases: cell-based
[1] = tested on: Mouse melanocytes (Melan-a); assay: Melanin content with rapamycin (autophagy inducer) or bafilomycin (autophagy inhibitor); details: bafilomycin (autophagy inhibitor) treatment, FIG. 8
Protocol: (§1) Mouse melanocytes (Melan-a) were inoculated into a 24-well plate at 1×10^5 cells/mL and cultured overnight. Thereafter, the medium was replaced with a new medium containing 100 μM IBMX (melanogenesis promoter) and 10 μg/mL and 100 μg/mL of the Nypa fruticans extract of the present disclosure, and reacted for 72 hours. Thereafter, the cells were treated with rapamycin (autophagy inducer) or bafilomycin (autophagy inhibitor), and the melanin content was evaluated.

[2] = tested on: Mouse melanocytes (Melan-a); assay: Melanin content analysis in IBMX-treated melanocytes; details: 72 hours, FIG. 2
Protocol: as §1, with “hours, and the existing medium was washed.” for “hours.”, “washed twice” for “treated”, “PBS” for “rapamycin (autophagy inducer) or bafilomycin (autophagy inhibitor),”, “dissolved in 1 N NaOH.” for “the melanin content was evaluated.”
The melanin content was analyzed at 405 nm with a spectrophotometer, and arbutin was used as a positive control group.

[3] = tested on: melanogenesis-related proteins (TYR, TYRP-2, MITF) in mouse melanocytes (Melan-a); assay: Melanogenesis inhibitory effect (Western blot), melanogenesis-related protein expression; details: IBMX treatment alone, FIG. 4
Protocol: as §1, with “hours, and the existing medium was washed.” for “hours.”, “washed twice” for “treated”, “PBS” for “rapamycin (autophagy inducer) or bafilomycin (autophagy inhibitor),”, “dissolved in 1 N NaOH.” for “the melanin content was evaluated.”
Mouse melanocytes (Melan-a) were lysed with a RIPA buffer (ELPIS Biotech. Inc., Korea) containing protease inhibitor cocktail I (P8340; Sigma-Aldrich Korea) and phosphatase inhibitor cocktail II (P5726; Sigma-Aldrich Korea) and the extracted proteins were quantified using a Bradford protein method. Each protein was separated by 10% SDS-PAGE, and then transferred to a nitrocellulose (NC) membrane (0.45 μm; 1620115; Bio-Rad, Munich, Germany) and blocked with 5% skim milk or BSA in TBST for 1 hour. The membrane was cultured overnight with primary antibodies at 4° C. The membrane was washed four times at 15-minute intervals, and then reacted with anti-mouse or rabbit IgG-HRP as a secondary antibody. The proteins were detected using the ECL Solution System (ChemiDoc™ XRS+; Bio-Rad), and protein bands were quantified using Image Lab™ software (Bio-Rad Laboratories, CA, USA).

[4] = tested on: melanogenesis-related genes (TYR, TYRP-1, TYRP-2, MITF, MC1R) in mouse melanocytes (Melan-a); assay: Melanogenesis inhibitory effect (RT-PCR), melanogenesis-related mRNA expression; details: IBMX treatment alone, FIG. 3
Protocol: as §1, with “hours, and the existing medium was washed.” for “hours.”, “washed twice” for “treated”, “PBS” for “rapamycin (autophagy inducer) or bafilomycin (autophagy inhibitor),”, “dissolved in 1 N NaOH.” for “the melanin content was evaluated.”
In melanogenesis, tyrosinase (TYR), tyrosinase-related protein-1 (TYRP-1) and tyrosinase-related protein-2 (TYRP-2) were key factors. […] In the experiment, phosphorylated CREB was evaluated as a transcription factor and melanogenesis-related genes such as tyrosinase, TYRP-1, TYRP-2, MITF, and MC1R in mouse melanocytes (Melan-a) to confirm a melanogenesis inhibitory effect.
Total RNA (2 μg) was extracted from the mouse melanocytes (Melan-a) using TRIzol (Invitrogen Co., Carlsbad, CA, USA). […] Quantification of bands was calculated using Image Lab™ software version 5.2.1 (Bio-Rad Laboratories, CA, USA).

CO/C1=C\C(C)=C\[C@@H](C)[C@@H](O)[C@@H](C)C/C(C)=C/C=C/[C@H](OC)[C@@H]([C@@H](C)[C@@H](O)[C@H](C)[C@@]2(O)C[C@@H](O)[C@H](C)[C@@H](C(C)C)O2)OC1=O [bafilomycin]
effect on melanin content [1]: did not affect

OC[C@H]1O[C@@H](Oc2ccc(O)cc2)[C@H](O)[C@@H](O)[C@@H]1O [arbutin]
melanin content reduction effect ([2]; IBMX-treated Melan-a, extract 100 μg/mL, arbutin positive control): melanin content reduction effect

CC(C)Cn1c(=O)n(C)c(=O)c2[nH]cnc21 [IBMX]
melanogenesis-related protein levels [3]: increased
melanogenesis-related mRNA expression [4]: increased
increase of melanin content compared to IBMX-untreated control group ([2]; 100 μM IBMX, absorbance 405 nm): about 1.5 times
